Measurements: patent US5376371A, “Compositions for treating fat deposits in humans” (Indena S.p.A., priority 1989, dated 1994)

Assays:
phosphodiesterase [1] = assay: Phosphodiesterase inhibition, cyclic AMP substrate; type: biochemical; settings: 1 μM substrate; read-out: I50 Cyclic AMP
Protocol: (§1) The determination of the phosphodiesterase activity was carried out according to the method of Beretz et al. (Experientia, 34,1054,1977). The method consists in measuring (3H) products resulting from incubation of (3H)-c-AMP with the phosphodiesterase preparation and with an excess of […]. An anion exchange resin was used in a batch process to remove the residual substrate. The inibition of PDE by flavonoids was studied in experiments in which the concentration of c-AMP was held constant at 1 μM.
(§2) Assays were performed with 1 μM substrate, I50 was calculated as described above.

phosphodiesterase [2] = settings: stated as known; cited from earlier work
phosphodiesterase [3] = assay: Phosphodiesterase inhibition, cyclic GMP substrate; type: biochemical; settings: 1 μM substrate; read-out: I50 Cyclic GMP
Protocol: as §1, §2

Row | IC50 (phosphodiesterase [1]) [µM] | IC50 (phosphodiesterase [3]) [µM] | Compound | inhibition of phosphodiesterase (phosphodiesterase [2])
1 | 0.65 | 0.58 | O=c1cc(-c2ccc(O)c(-c3c(O)cc(O)c4c(=O)cc(-c5ccc(O)cc5)oc34)c2)oc2cc(O)cc(O)c12 [Amentoflavone, amentoflavone] | powerful inhibitor of phosphodiesterase
2 | 2000 | 235 | O=C(O)c1cc(=O)c2c(OCC(O)COc3cccc4oc(C(=O)O)cc(=O)c34)cccc2o1 [Cromoglycate Na, reference compound] | –
3 | 0.88 | 0.49 | ginkgonetine | –

Row | Compound | IC50 (phosphodiesterase [1]) [µM] | IC50 (phosphodiesterase [3]) [µM] | inhibition of phosphodiesterase (phosphodiesterase [2])
4 | COc1ccc(Cc2nccc3cc(OC)c(OC)cc23)cc1OC [Papaverine, reference compound] | 5 | 12.4 | –
